Measured values as given in patent US20240158446A1, “CYCLIC COMPOUND HAVING SELECTIVE INHIBITORY ACTION ON KRAS OVER HRAS AND NRAS” (CHUGAI SEIYAKU KABUSHIKI KAISHA, priority 2021, published 2024).
Where a SMILES comes first, the peptide text is derived from it. Bridges are numbered along the chain shown (N, C = ends). [ ]: non-standard residue; d: D form. The star is where a group is joined. hPhe(3-Cl-4-CF3) = N[C@@H](CCc1ccc(C(F)(F)F)c(Cl)c1)C(=O)O; NPrPhe(4-CF3) = CCCN[C@@H](Cc1ccc(C(F)(F)F)cc1)C(=O)O; NMeGly(cPent) = CN[C@H](C(=O)O)C1CCCC1; Pro(4,4-F2) = O=C(O)[C@@H]1CC(F)(F)CN1; Hyp = O=C(O)[C@@H]1C[C@@H](O)CN1; NMeD = CN[C@@H](CC(=O)O)C(=O)O; NMeL = CN[C@@H](CC(C)C)C(=O)O; N(Me)CH2CH2OMe = COCCN(C)*; Morpholide = C1CN(*)CCO1; Ac5c = NC1(C(=O)O)CCCC1; Aze = O=C(O)[C@@H]1CCN1; Ac4c = NC1(C(=O)O)CCC1; NEtG = CCNCC(=O)O; Sar = CNCC(=O)O

Legend:
[1] = molecular target: GDP-bound NRAS wild-type protein (Homo sapiens, UniProt P01111); experiment: Binding to NRAS by surface plasmon resonance (SPR), Single Cycle Kinetics; conditions: SPR, GDP-bound NRAS wild-type protein vs GDP-bound KRAS wild-type protein
[2] = molecular target: GDP-bound HRAS wild-type protein (Homo sapiens, UniProt P01112); experiment: Binding to HRAS by surface plasmon resonance (SPR), Single Cycle Kinetics; conditions: SPR, GDP-bound HRAS wild-type protein vs GDP-bound KRAS wild-type protein
[3] = molecular target: GDP-bound KRAS wild-type protein (Homo sapiens, UniProt P01116); experiment: Binding to KRAS by surface plasmon resonance (SPR), Single Cycle Kinetics; conditions: SPR Single Cycle Kinetics, GDP-bound KRAS wild-type protein, 1:1 binding model; read-out: KRAS KD
Chain of GDP-bound KRAS wild-type protein (P01116 whole entry): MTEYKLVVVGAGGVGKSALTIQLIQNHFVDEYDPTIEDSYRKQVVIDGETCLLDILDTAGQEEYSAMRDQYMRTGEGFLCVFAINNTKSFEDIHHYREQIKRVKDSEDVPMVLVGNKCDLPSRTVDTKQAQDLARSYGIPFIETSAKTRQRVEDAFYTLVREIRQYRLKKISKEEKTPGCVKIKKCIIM

Chain of GDP-bound NRAS wild-type protein (P01111 whole entry): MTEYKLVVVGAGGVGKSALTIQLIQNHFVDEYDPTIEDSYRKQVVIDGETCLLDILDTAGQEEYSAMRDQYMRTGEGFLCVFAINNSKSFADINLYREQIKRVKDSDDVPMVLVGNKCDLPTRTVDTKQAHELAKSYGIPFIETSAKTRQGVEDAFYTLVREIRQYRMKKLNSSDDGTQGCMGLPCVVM
Chain of GDP-bound HRAS wild-type protein (P01112 whole entry): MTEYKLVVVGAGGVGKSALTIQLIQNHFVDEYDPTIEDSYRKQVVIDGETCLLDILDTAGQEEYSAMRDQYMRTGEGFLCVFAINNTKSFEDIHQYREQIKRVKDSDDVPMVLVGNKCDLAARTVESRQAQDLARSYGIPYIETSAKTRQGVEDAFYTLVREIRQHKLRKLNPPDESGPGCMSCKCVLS

Compound | NRAS/KRAS (ratio of KD value for NRAS to KD value for KRAS) [1] | HRAS/KRAS (ratio of KD value for HRAS to KD value for KRAS) [2] | Kd [3] [pM]
CCCN1C(=O)CN(C)C(=O)CN(C)C(=O)[C@H]([C@@H](C)CC)NC(=O)[C@H](CC(C)C)N(C)C(=O)C[C@@H](C(=O)N(C)CCOC)N(C)C(=O)[C@H](C2CCCC2)N(C)C(=O)C2(CCCC2)NC(=O)[C@@H]2CCCN2C(=O)[C@H](CCc2ccc(C(F)(F)F)c(Cl)c2)NC(=O)CN(C)C(=O)[C@@H]1Cc1ccc(C(F)(F)F)cc1 [PP0391] ([NMeL]I[Sar][Sar][NPrPhe(4-CF3)][Sar][hPhe(3-Cl-4-CF3)]P[Ac5c][NMeGly(cPent)][NMeD]-{N(Me)CH2CH2OMe}; lactam N-11) | B (a compound having 3 or more and less than 10 is denoted as B) | B (a compound having 3 or more and less than 10 is denoted as B) | 92
CCCN1C(=O)CN(C)C(=O)CN(C)C(=O)[C@H]([C@@H](C)CC)NC(=O)[C@H](CC(C)C)N(C)C(=O)C[C@@H](C(=O)N2CCOCC2)N(C)C(=O)[C@H](C2CCCC2)N(C)C(=O)C2(CCC2)NC(=O)[C@@H]2C[C@@H](OCC)CN2C(=O)[C@H](CCc2ccc(C(F)(F)F)c(Cl)c2)NC(=O)CN(C)C(=O)[C@@H]1Cc1ccc(C(F)(F)F)cc1 [PP0392] ([NMeL]I[Sar][Sar][NPrPhe(4-CF3)][Sar][hPhe(3-Cl-4-CF3)][Hyp](Et)[Ac4c][NMeGly(cPent)][NMeD]-Morpholide; lactam N-11) | B (a compound having 3 or more and less than 10 is denoted as B) | C (A compound having a KD ratio of 0.1 or more and less than 3 is denoted as C) | 67
CCCN1C(=O)CN(C)C(=O)CNC(=O)[C@H]([C@@H](C)CC)NC(=O)[C@H](CC(C)C)N(C)C(=O)C[C@@H](C(=O)N2CCOCC2)N(C)C(=O)[C@H](C2CCCC2)N(C)C(=O)C2(CCC2)NC(=O)[C@@H]2CCCN2C(=O)[C@H](CCc2ccc(C(F)(F)F)c(Cl)c2)NC(=O)CN(C)C(=O)[C@@H]1Cc1ccc(C(F)(F)F)cc1 [PP0393] ([NMeL]IG[Sar][NPrPhe(4-CF3)][Sar][hPhe(3-Cl-4-CF3)]P[Ac4c][NMeGly(cPent)][NMeD]-Morpholide; lactam N-11) | B (a compound having 3 or more and less than 10 is denoted as B) | B (a compound having 3 or more and less than 10 is denoted as B) | 110
CCCN1C(=O)CN(C)C(=O)CNC(=O)[C@H]([C@@H](C)CC)NC(=O)[C@H](CC(C)C)N(C)C(=O)C[C@@H](C(=O)N2CCOCC2)N(C)C(=O)[C@H](C2CCCC2)N(C)C(=O)C2(CCCC2)NC(=O)[C@@H]2CC(F)(F)CN2C(=O)[C@H](CCc2ccc(C(F)(F)F)c(Cl)c2)NC(=O)CN(C)C(=O)[C@@H]1Cc1ccc(C(F)(F)F)cc1 [PP0394] ([NMeL]IG[Sar][NPrPhe(4-CF3)][Sar][hPhe(3-Cl-4-CF3)][Pro(4,4-F2)][Ac5c][NMeGly(cPent)][NMeD]-Morpholide; lactam N-11) | C (A compound having a KD ratio of 0.1 or more and less than 3 is denoted as C) | C (A compound having a KD ratio of 0.1 or more and less than 3 is denoted as C) | 240
CCCN1C(=O)CN(C)C(=O)CNC(=O)[C@H]([C@@H](C)CC)NC(=O)[C@H](CC(C)C)N(C)C(=O)C[C@@H](C(=O)N2CCOCC2)N(C)C(=O)[C@H](C2CCCC2)N(C)C(=O)C2(CCC2)NC(=O)[C@@H]2CC(F)(F)CN2C(=O)[C@H](CCc2ccc(C(F)(F)F)c(Cl)c2)NC(=O)CN(C)C(=O)[C@@H]1Cc1ccc(C(F)(F)F)cc1 [PP0395] ([NMeL]IG[Sar][NPrPhe(4-CF3)][Sar][hPhe(3-Cl-4-CF3)][Pro(4,4-F2)][Ac4c][NMeGly(cPent)][NMeD]-Morpholide; lactam N-11) | B (a compound having 3 or more and less than 10 is denoted as B) | C (A compound having a KD ratio of 0.1 or more and less than 3 is denoted as C) | 68
CCCN1C(=O)CN(C)C(=O)CNC(=O)[C@H]([C@@H](C)CC)NC(=O)[C@H](CC(C)C)N(C)C(=O)C[C@@H](C(=O)N2CCOCC2)N(C)C(=O)[C@H](C2CCCC2)N(C)C(=O)C2(CCCC2)NC(=O)[C@@H]2C[C@@H](OCC)CN2C(=O)[C@H](CCc2ccc(C(F)(F)F)c(Cl)c2)NC(=O)CN(C)C(=O)[C@@H]1Cc1ccc(C(F)(F)F)cc1 [PP0396] ([NMeL]IG[Sar][NPrPhe(4-CF3)][Sar][hPhe(3-Cl-4-CF3)][Hyp](Et)[Ac5c][NMeGly(cPent)][NMeD]-Morpholide; lactam N-11) | B (a compound having 3 or more and less than 10 is denoted as B) | C (A compound having a KD ratio of 0.1 or more and less than 3 is denoted as C) | 130
CCCN1C(=O)CN(C)C(=O)CNC(=O)[C@H]([C@@H](C)CC)NC(=O)[C@H](CC(C)C)N(C)C(=O)C[C@@H](C(=O)N2CCOCC2)N(C)C(=O)[C@H](C2CCCC2)N(C)C(=O)C2(CCC2)NC(=O)[C@@H]2C[C@@H](OCC)CN2C(=O)[C@H](CCc2ccc(C(F)(F)F)c(Cl)c2)NC(=O)CN(C)C(=O)[C@@H]1Cc1ccc(C(F)(F)F)cc1 [PP0397] ([NMeL]IG[Sar][NPrPhe(4-CF3)][Sar][hPhe(3-Cl-4-CF3)][Hyp](Et)[Ac4c][NMeGly(cPent)][NMeD]-Morpholide; lactam N-11) | C (A compound having a KD ratio of 0.1 or more and less than 3 is denoted as C) | C (A compound having a KD ratio of 0.1 or more and less than 3 is denoted as C) | 120
CCCN1C(=O)CN(C)C(=O)CN(CC)C(=O)[C@H]([C@@H](C)CC)NC(=O)[C@H](CC(C)C)N(C)C(=O)C[C@@H](C(=O)N2CCOCC2)N(C)C(=O)[C@H](C2CCCC2)N(C)C(=O)C2(CCCC2)NC(=O)[C@@H]2CC(F)(F)CN2C(=O)[C@H](CCc2ccc(C(F)(F)F)c(Cl)c2)NC(=O)CN(C)C(=O)[C@@H]1Cc1ccc(C(F)(F)F)cc1 [PP0399] ([NMeL]I[NEtG][Sar][NPrPhe(4-CF3)][Sar][hPhe(3-Cl-4-CF3)][Pro(4,4-F2)][Ac5c][NMeGly(cPent)][NMeD]-Morpholide; lactam N-11) | B (a compound having 3 or more and less than 10 is denoted as B) | C (A compound having a KD ratio of 0.1 or more and less than 3 is denoted as C) | 330
CCCN1C(=O)CN(C)C(=O)CN(CC)C(=O)[C@H]([C@@H](C)CC)NC(=O)[C@H](CC(C)C)N(C)C(=O)C[C@@H](C(=O)N2CCOCC2)N(C)C(=O)[C@H](C2CCCC2)N(C)C(=O)C2(CCC2)NC(=O)[C@@H]2CC(F)(F)CN2C(=O)[C@H](CCc2ccc(C(F)(F)F)c(Cl)c2)NC(=O)CN(C)C(=O)[C@@H]1Cc1ccc(C(F)(F)F)cc1 [PP0400] ([NMeL]I[NEtG][Sar][NPrPhe(4-CF3)][Sar][hPhe(3-Cl-4-CF3)][Pro(4,4-F2)][Ac4c][NMeGly(cPent)][NMeD]-Morpholide; lactam N-11) | B (a compound having 3 or more and less than 10 is denoted as B) | B (a compound having 3 or more and less than 10 is denoted as B) | 170
CCCN1C(=O)CN(C)C(=O)CN(CC)C(=O)[C@H]([C@@H](C)CC)NC(=O)[C@H](CC(C)C)N(C)C(=O)C[C@@H](C(=O)N2CCOCC2)N(C)C(=O)[C@H](C2CCCC2)N(C)C(=O)C2(CCC2)NC(=O)[C@@H]2C[C@@H](OCC)CN2C(=O)[C@H](CCc2ccc(C(F)(F)F)c(Cl)c2)NC(=O)CN(C)C(=O)[C@@H]1Cc1ccc(C(F)(F)F)cc1 [PP0401] ([NMeL]I[NEtG][Sar][NPrPhe(4-CF3)][Sar][hPhe(3-Cl-4-CF3)][Hyp](Et)[Ac4c][NMeGly(cPent)][NMeD]-Morpholide; lactam N-11) | B (a compound having 3 or more and less than 10 is denoted as B) | B (a compound having 3 or more and less than 10 is denoted as B) | 150
CCCN1C(=O)CN(C)C(=O)[C@@H]2CCN2C(=O)[C@H]([C@@H](C)CC)NC(=O)[C@H](CC(C)C)N(C)C(=O)C[C@@H](C(=O)N2CCOCC2)N(C)C(=O)[C@H](C2CCCC2)N(C)C(=O)C2(CCCC2)NC(=O)[C@@H]2CC(F)(F)CN2C(=O)[C@H](CCc2ccc(C(F)(F)F)c(Cl)c2)NC(=O)CN(C)C(=O)[C@@H]1Cc1ccc(C(F)(F)F)cc1 [PP0403] ([NMeL]I[Aze][Sar][NPrPhe(4-CF3)][Sar][hPhe(3-Cl-4-CF3)][Pro(4,4-F2)][Ac5c][NMeGly(cPent)][NMeD]-Morpholide; lactam N-11) | B (a compound having 3 or more and less than 10 is denoted as B) | B (a compound having 3 or more and less than 10 is denoted as B) | 830
CCCN1C(=O)CN(C)C(=O)[C@@H]2CCN2C(=O)[C@H]([C@@H](C)CC)NC(=O)[C@H](CC(C)C)N(C)C(=O)C[C@@H](C(=O)N2CCOCC2)N(C)C(=O)[C@H](C2CCCC2)N(C)C(=O)C2(CCC2)NC(=O)[C@@H]2C[C@@H](OCC)CN2C(=O)[C@H](CCc2ccc(C(F)(F)F)c(Cl)c2)NC(=O)CN(C)C(=O)[C@@H]1Cc1ccc(C(F)(F)F)cc1 [PP0405] ([NMeL]I[Aze][Sar][NPrPhe(4-CF3)][Sar][hPhe(3-Cl-4-CF3)][Hyp](Et)[Ac4c][NMeGly(cPent)][NMeD]-Morpholide; lactam N-11) | B (a compound having 3 or more and less than 10 is denoted as B) | C (A compound having a KD ratio of 0.1 or more and less than 3 is denoted as C) | 310
